Assay results from PubChem BioAssay AID330 (DTP/NCI, 2004).
Several values for one entry are separate records, joined by “and”; a condition that tells them apart may be missing. Identical values can stand only once. Toxic doses and inconclusive results are not listed.

Tested on: P388 leukemia ip, CD2F1 mice, survival T/C
Test: NCI In Vivo Anticancer Drug Screen. Data for tumor model P388 Leukemia (intraperitoneal) in CD2F1 (CDF1) mice
Conditions: endpoint: median survival time, higher = longer survival
In short: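 Mice carrying the transplanted tumor received test compound or vehicle. Survival was recorded in each group, and the value is the treated-group measurement divided by that of the vehicle-treated control group.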

[1] = dose: 50.0 mg/kg/injection, schedule: Q01DX009 (ip), vehicle: saline with Tween-80
[2] = dose: 100.0 mg/kg/injection, schedule: Q01DX009 (ip), vehicle: saline with Tween-80
[3] = dose: 60.0 mg/kg/injection, schedule: Q01DX005 (ip), vehicle: saline with Tween-80
[4] = dose: 120.0 mg/kg/injection, schedule: Q01DX005 (ip), vehicle: saline with Tween-80
[5] = dose: 240.0 mg/kg/injection, schedule: Q01DX005 (ip), vehicle: saline with Tween-80

With `CC[C@@]12C[C@H]3CN(CCc4c([nH]c5ccccc45)[C@@](C(=O)OC)(c4cc5c(cc4OC)N(C)[C@H]4[C@@](O)(C(=O)OC)[C@H](OC(C)=O)[C@]6(CC)C=CCN7CC[C@]54[C@@H]76)C3O1)C2` (some centres not stated) the T/C (dose: 0.5 mg/kg/injection, schedule: Q01DX001 (ip), vehicle: distilled water + Tween-80) was 103 % of control, the T/C (dose: 0.5 mg/kg/injection, schedule: Q01DX001 (ip), vehicle: water) was 98 % of control and the T/C (dose: 1.0 mg/kg/injection, schedule: Q01DX001 (ip), vehicle: distilled water + Tween-80) was 100 % of control and 101 % of control. The T/C (dose: 1.0 mg/kg/injection, schedule: Q01DX001 (ip), vehicle: water) was 96 % of control, the T/C (dose: 1.0 mg/kg/injection, schedule: Q01DX009 (ip), vehicle: distilled water + alcohol) was 176 % of control and the T/C (dose: 2.0 mg/kg/injection, schedule: Q01DX001 (ip), vehicle: distilled water + Tween-80) was 100 % of control. For the same molecule, the T/C (dose: 2.0 mg/kg/injection, schedule: Q01DX001 (ip), vehicle: water) was 97 % of control, the T/C (dose: 2.0 mg/kg/injection, schedule: Q01DX009 (ip), vehicle: distilled water + alcohol) was 176 % of control and the T/C (dose: 4.0 mg/kg/injection, schedule: Q01DX001 (ip), vehicle: distilled water + Tween-80) was 100 % of control and 108 % of control. The T/C (dose: 4.0 mg/kg/injection, schedule: Q01DX001 (ip), vehicle: water) was 105 % of control, the T/C (dose: 4.0 mg/kg/injection, schedule: Q01DX009 (ip), vehicle: distilled water + alcohol) was 168 % of control and the T/C (dose: 8.0 mg/kg/injection, schedule: Q01DX001 (ip), vehicle: distilled water + Tween-80) was 100 % of control and 93 % of control. The T/C (dose: 8.0 mg/kg/injection, schedule: Q01DX001 (ip), vehicle: water) was 108 % of control, the T/C (dose: 16.0 mg/kg/injection, schedule: Q01DX001 (ip), vehicle: distilled water + Tween-80) was 96 % of control and the T/C (dose: 32.0 mg/kg/injection, schedule: Q01DX001 (ip), vehicle: distilled water + Tween-80) was 102 % of control.
`C=C1C2CCC3C(CCC4C5(C)CCCC43C3OCCN3C5)(C2)C1OC(C)=O` (configuration not stated) was tested, and the T/C (dose: 12.0 mg/kg/injection, schedule: Q01DX009 (ip), vehicle: Klucel (hydroxypropylcellulose) (HPC)) was 100 % of control, the T/C (dose: 24.0 mg/kg/injection, schedule: Q01DX009 (ip), vehicle: Klucel (hydroxypropylcellulose) (HPC)) was 96 % of control and the T/C (dose: 48.0 mg/kg/injection, schedule: Q01DX009 (ip), vehicle: Klucel (hydroxypropylcellulose) (HPC)) was 91 % of control.
`CS/C(=N\N=C(/C)c1ccccn1)N1CCN(c2ccccn2)CC1` was tested, and the T/C (dose: 100.0 mg/kg/injection, schedule: Q04DX003 (ip), vehicle: saline with Tween-80) was 98 % of control, the T/C (dose: 200.0 mg/kg/injection, schedule: Q04DX003 (ip), vehicle: saline with Tween-80) was 99 % of control and the T/C (dose: 400.0 mg/kg/injection, schedule: Q04DX003 (ip), vehicle: saline with Tween-80) was 96 % of control.
With `N#CCC(C#N)N1CCOCC1` (configuration not stated) the T/C (dose: 25.0 mg/kg/injection, schedule: Q01DX009 (ip), vehicle: saline with Tween-80) was 100 % of control, the T/C [1] was 100 % of control and the T/C [2] was 100 % of control.
With `O=C1CC23c4ccccc4N4C(=O)CC5OCC=C6CN1C2CC6C5C43` (configuration not stated) the T/C [3] was 101 % of control, the T/C [4] was 92 % of control and the T/C [5] was 92 % of control.
`COc1ccc2[nH]c3c(c2c1)C(=O)c1ccncc1C3=O` was tested, and the T/C (dose: 37.5 mg/kg/injection, schedule: Q04DX002 (ip), vehicle: Klucel (hydroxypropylcellulose) (HPC)) was 87 % of control and the T/C (dose: 75.0 mg/kg/injection, schedule: Q04DX002 (ip), vehicle: Klucel (hydroxypropylcellulose) (HPC)) was 91 % of control.
`ClC1=C(Cl)[C@@]2(Cl)[C@H]3[C@H]4C[C@H]([C@@H]5O[C@H]45)[C@H]3[C@@]1(Cl)C2(Cl)Cl` was tested, and the T/C (dose: 12.5 mg/kg/injection, schedule: Q04DX003 (ip), vehicle: Klucel (hydroxypropylcellulose) (HPC)) was 95 % of control.
With `Nc1nc(N)nc(-c2ccccc2)n1` the T/C (dose: 50.0 mg/kg/injection, schedule: Q01DX009 (ip), vehicle: suspension in saline) was 106 % of control, the T/C (dose: 100.0 mg/kg/injection, schedule: Q01DX009 (ip), vehicle: suspension in saline) was 99 % of control and the T/C (dose: 200.0 mg/kg/injection, schedule: Q01DX009 (ip), vehicle: suspension in saline) was 106 % of control.
For `CCOC(=O)Nc1nc2ccccc2n1CN1CCN(Cn2c(NC(=O)OCC)nc3ccccc32)CC1`, the T/C (dose: 25.0 mg/kg/injection, schedule: Q01DX005 (ip), vehicle: saline) was 108 % of control, the T/C (dose: 50.0 mg/kg/injection, schedule: Q01DX005 (ip), vehicle: saline) was 111 % of control and the T/C (dose: 100.0 mg/kg/injection, schedule: Q01DX005 (ip), vehicle: saline) was 121 % of control. For the same molecule, the T/C (dose: 200.0 mg/kg/injection, schedule: Q01DX005 (ip), vehicle: saline) was 122 % of control.
`NC(=O)C(CC(C(=O)O)c1ccccc1)c1ccccc1` (configuration not stated) was tested, and the T/C (dose: 100.0 mg/kg/injection, schedule: Q01DX001 (ip), vehicle: Klucel (hydroxypropylcellulose) (HPC)) was 99 % of control, the T/C (dose: 200.0 mg/kg/injection, schedule: Q01DX001 (ip), vehicle: Klucel (hydroxypropylcellulose) (HPC)) was 96 % of control and the T/C (dose: 400.0 mg/kg/injection, schedule: Q01DX001 (ip), vehicle: Klucel (hydroxypropylcellulose) (HPC)) was 97 % of control.
For `CC(=O)c1c(-c2nc(=S)[nH]c(C)c2C(C)=O)nc(=S)[nH]c1C`, the T/C (dose: 60.0 mg/kg/injection, schedule: Q01DX005 (ip), vehicle: Klucel (hydroxypropylcellulose) (HPC)) was 106 % of control, the T/C (dose: 120.0 mg/kg/injection, schedule: Q01DX005 (ip), vehicle: Klucel (hydroxypropylcellulose) (HPC)) was 100 % of control and the T/C (dose: 240.0 mg/kg/injection, schedule: Q01DX005 (ip), vehicle: Klucel (hydroxypropylcellulose) (HPC)) was 90 % of control.
`NC(CCC(=O)OCc1ccccc1)C(=O)OCc1ccccc1` (configuration not stated) was tested, and the T/C (dose: 50.0 mg/kg/injection, schedule: Q04DX003 (ip), vehicle: saline) was 100 % of control, the T/C (dose: 100.0 mg/kg/injection, schedule: Q04DX003 (ip), vehicle: saline) was 104 % of control and the T/C (dose: 200.0 mg/kg/injection, schedule: Q04DX003 (ip), vehicle: saline) was 100 % of control.
For `CCNC(=O)n1cccc(OC)c1=O`, the T/C (dose: 50.0 mg/kg/injection, schedule: Q01DX009 (ip), vehicle: saline) was 101 % of control and 107 % of control, the T/C (dose: 100.0 mg/kg/injection, schedule: Q01DX009 (ip), vehicle: saline) was 109 % of control and 114 % of control and 119 % of control and the T/C (dose: 200.0 mg/kg/injection, schedule: Q01DX009 (ip), vehicle: saline) was 111 % of control and 116 % of control. For the same molecule, the T/C (dose: 300.0 mg/kg/injection, schedule: Q01DX009 (ip), vehicle: saline) was 109 % of control.
In the case of `Nc1ccc(C(=O)Nc2ccc(NC(=O)c3ccco3)c(O)c2)cc1`, the T/C [3] is reported as 94 % of control, the T/C [4] is reported as 91 % of control and the T/C [5] is reported as 89 % of control.
For `O=C(O)C(C1CCCCC1)C1(O)CCCCCC1` (configuration not stated), the T/C (dose: 50.0 mg/kg/injection, schedule: Q01DX005 (ip), vehicle: Klucel (hydroxypropylcellulose) (HPC)) was 97 % of control, the T/C (dose: 100.0 mg/kg/injection, schedule: Q01DX005 (ip), vehicle: Klucel (hydroxypropylcellulose) (HPC)) was 103 % of control and the T/C (dose: 200.0 mg/kg/injection, schedule: Q01DX005 (ip), vehicle: Klucel (hydroxypropylcellulose) (HPC)) was 100 % of control.
For `COc1ccc2c(c1)Oc1c(Cl)c3c(c(Cl)c1=N2)Oc1cc(OC)ccc1N=3`, the T/C (dose: 100.0 mg/kg/injection, schedule: Q01DX001 (ip), vehicle: saline with Tween-80) was 89 % of control, the T/C (dose: 200.0 mg/kg/injection, schedule: Q01DX001 (ip), vehicle: saline with Tween-80) was 89 % of control and the T/C (dose: 400.0 mg/kg/injection, schedule: Q01DX001 (ip), vehicle: saline with Tween-80) was 115 % of control.
For `CNC(=O)OCc1c(COC(=O)NC)c(C)n(-c2ccc(Cl)c(Cl)c2)c1C`, the T/C (dose: 12.5 mg/kg/injection, schedule: Q01DX009 (ip), vehicle: saline) was 154 % of control and 160 % of control and the T/C (dose: 25.0 mg/kg/injection, schedule: Q01DX009 (ip), vehicle: saline) was 165 % of control.
With `COC(=O)C1=CO[C@@H](OC2OC(CO)C(O)C(O)C2O)[C@H]2[C@@H]1C=C[C@@]21C=C([C@@H](C)O)C(=O)O1` (some centres not stated) the T/C (dose: 1.63 mg/kg/injection, schedule: Q01DX005 (ip), vehicle: Klucel (hydroxypropylcellulose) (HPC)) was 99 % of control, the T/C (dose: 3.25 mg/kg/injection, schedule: Q01DX005 (ip), vehicle: Klucel (hydroxypropylcellulose) (HPC)) was 101 % of control and the T/C (dose: 6.5 mg/kg/injection, schedule: Q01DX005 (ip), vehicle: Klucel (hydroxypropylcellulose) (HPC)) was 101 % of control. The T/C (dose: 13.0 mg/kg/injection, schedule: Q01DX005 (ip), vehicle: Klucel (hydroxypropylcellulose) (HPC)) was 95 % of control.
In the case of `O=C(NC1CC(c2ccccc2)(c2ccccc2)OC1=O)c1ccccc1` (configuration not stated), the T/C [1] is reported as 100 % of control and the T/C [2] is reported as 86 % of control.
For `CCN(CC)C(=S)C(C)(C)C`, the T/C [3] was 106 % of control and the T/C [4] was 106 % of control.
For `C[Si](C)(C)N=S=N[Si](C)(C)C`, the T/C (dose: 50.0 mg/kg/injection, schedule: Q01DX005 (ip), vehicle: saline with Tween-80) was 101 % of control and the T/C (dose: 100.0 mg/kg/injection, schedule: Q01DX005 (ip), vehicle: saline with Tween-80) was 108 % of control.
For `Cc1ccc2c(c1)C1(SC(C)C(=O)N1c1ccc(F)cc1)C(=O)N2` (configuration not stated), the T/C [3] was 89 % of control, the T/C [4] was 90 % of control and the T/C [5] was 87 % of control.
In the case of `CC12OC(=O)CC1C(c1ccccc1)(c1ccccc1)O2` (configuration not stated), the T/C [3] is reported as 100 % of control, the T/C [4] is reported as 94 % of control and the T/C [5] is reported as 88 % of control.
